# Measured values published in article PMC9304322, “Targeting retinoic acid receptor alpha-corepressor interaction activates chaperone-mediated autophagy and protects against retinal degeneration” (Nature Communications, 2022).
# “And” between values parts separate entries of the source, which are not always exact repeats. Equal entries are not always repeated.
# Columns and labels:
# [1] = tested on: neuroblastoma cell line N2a expressing the KFERQ-PS-Dendra reporter; test: CMA activity, KFERQ-PS-Dendra reporter in N2a cells; assay type: cell-based, mouse; design: CMA activity, mean (Fig. S2a): unit not given here
# Method: (§1) Cells were transduced with lentivirus carrying the KFERQ-PS-Dendra reporter as before. Cells were photoactivated by exposure to a 3.5 mA (current constant) light emitting diode (LED: Norlux, 405 nm) for 3 min and then plated in glass-bottom 96 well plates. At the desired times, cells were fixed with 4% PFA and imaged using high-content microscopy (Operetta system, Perkin Elmer). Images were quantified using the manufacturer’s software in a minimum of 1,200 cells in 9 independent fields per well. […] This was particularly important in the case of primary human cells where the efficiency of transduction was ~65%. To avoid confounding effects for drug-induced changes in cell volume or adherence to the plate that could bring a fraction of the cells per field outside of focus, we set a threshold to count only […] that have at least 1/10 of the average number of […] detected in the untreated wells for each cell type (3–4 puncta/cell in the case of NIH3T3 and N2a cells and 5 puncta/cell in primary human fibroblasts).
# [2] = tested on: NIH3T3 stably expressing the KFERQ-PS-Dendra; test: CMA activity, KFERQ-PS-Dendra fluorescent reporter in NIH3T3 mouse fibroblasts; assay type: cell-based; design: CMA activity (Fig. 1d), MEAN / CMA activity (Fig. 1e-g), mean / CMA activity (Fig. 1d), individual experiments / CMA activity, mean (Fig. S2c, second panel) / CMA activity, mean (Fig. S2c, first panel) / CMA activity, mean (Fig. S2c, third panel): unit not given here; details: for CMA activity (Fig. 1e-g), mean: n = 4
# Method: as §1
# NIH3T3 = test: Intracellular proteolysis of long half-life proteins; assay type: cell-based, mouse
# Method: Confluent cells were labelled with [^3H]leucine (2μCi/ml) (NEN-PerkinElmer Life Sciences) for 48 h and then extensively washed and maintained in medium with an excess of unlabeled leucine. Proteolysis was calculated from aliquots of the medium taken at different times and precipitated in trichloroacetic acid, as the amount of acid-precipitable radioactivity transformed to acid-soluble radioactivity at each time. Where indicated cell were treated during the chase with […] leupeptin (Sigma, #108975) and […] NH4Cl (to determine lysosomal degradation) or with 100 μm MRT 68921 dihydrochloride (Tocris, #5780) (to determine macroautophagy degradation).
compound,measurement,setting,value
"Cc1ccc(C2=Nc3ccc(Cl)cc3OC2)cc1 [AR7, reference compound]","CMA activity, mean relative to concentration 0 = 1 (Fig. S2b)","[1]; 12+12w, concentration 0.2",0.9288
same,"CMA activity, mean relative to concentration 0 = 1 (Fig. S2b)","[1]; 12+12w, concentration 2",0.9525
same,"CMA activity, mean relative to concentration 0 = 1 (Fig. S2b)","[1]; 12+12w, concentration 5",0.9471
same,"CMA activity, mean relative to concentration 0 = 1 (Fig. S2b)","[1]; 12+12w, concentration 10",0.8786
same,"CMA activity, mean relative to concentration 0 = 1 (Fig. S2b)","[1]; 12+12w, concentration 20",0.875
same,"CMA activity, mean relative to concentration 0 = 1 (Fig. S2b)","[1]; 12+12w, concentration 30",0.9362
same,"CMA activity, mean (Fig. S2a)","[1]; 12h, concentration 0.02",5.372
same,"CMA activity, mean (Fig. S2a)","[1]; 12h, concentration 0.2",5.3273
same,"CMA activity, mean relative to concentration 0 = 1 (Fig. S2b)","[1]; 12h, concentration 0.2",1.02
same,"CMA activity, mean (Fig. S2a)","[1]; 12h, concentration 2",5.394
same,"CMA activity, mean relative to concentration 0 = 1 (Fig. S2b)","[1]; 12h, concentration 2",1.033
same,"CMA activity, mean (Fig. S2a)","[1]; 12h, concentration 5",6.224
same,"CMA activity, mean relative to concentration 0 = 1 (Fig. S2b)","[1]; 12h, concentration 5",1.192
same,"CMA activity, mean (Fig. S2a)","[1]; 12h, concentration 10",5.944
same,"CMA activity, mean relative to concentration 0 = 1 (Fig. S2b)","[1]; 12h, concentration 10",1.138
same,"CMA activity, mean (Fig. S2a)","[1]; 12h, concentration 20",6.2128
same,"CMA activity, mean relative to concentration 0 = 1 (Fig. S2b)","[1]; 12h, concentration 20",1.19
same,"CMA activity, mean (Fig. S2a)","[1]; 12h, concentration 30",6.043
same,"CMA activity, mean relative to concentration 0 = 1 (Fig. S2b)","[1]; 12h, concentration 30",1.157
same,"CMA activity, mean (Fig. S2a)","[1]; 12h, concentration 40",6.596
same,"CMA activity, mean (Fig. S2a)","[1]; 12h, concentration 50",6.394
same,"CMA activity, mean (Fig. S2a)","[1]; 12h, concentration 60",6.271
same,"CMA activity, mean (Fig. S2a)","[1]; 24h, concentration 0.02",5.48
same,"CMA activity, mean (Fig. S2a)","[1]; 24h, concentration 0.2",5.351
same,"CMA activity, mean relative to concentration 0 = 1 (Fig. S2b)","[1]; 24h, concentration 0.2",0.8724
same,"CMA activity, mean (Fig. S2a)","[1]; 24h, concentration 2",5.879
same,"CMA activity, mean relative to concentration 0 = 1 (Fig. S2b)","[1]; 24h, concentration 2",0.9586
same,"CMA activity, mean (Fig. S2a)","[1]; 24h, concentration 5",6.0743
same,"CMA activity, mean relative to concentration 0 = 1 (Fig. S2b)","[1]; 24h, concentration 5",0.9904
same,"CMA activity, mean (Fig. S2a)","[1]; 24h, concentration 10",6.105
same,"CMA activity, mean relative to concentration 0 = 1 (Fig. S2b)","[1]; 24h, concentration 10",0.9953
same,"CMA activity, mean (Fig. S2a)","[1]; 24h, concentration 20",6.658
same,"CMA activity, mean relative to concentration 0 = 1 (Fig. S2b)","[1]; 24h, concentration 20",1.086
same,"CMA activity, mean (Fig. S2a)","[1]; 24h, concentration 30",7.455
same,"CMA activity, mean relative to concentration 0 = 1 (Fig. S2b)","[1]; 24h, concentration 30",1.2156
same,"CMA activity, mean (Fig. S2a)","[1]; 24h, concentration 40",8.122
same,"CMA activity, mean (Fig. S2a)","[1]; 24h, concentration 50",8.426
same,"CMA activity, mean (Fig. S2a)","[1]; 24h, concentration 60",8.941
same,"CMA activity (Fig. 1d), MEAN","[2]; 20 μM of each compound, n = 3 independent experiments",1.943
same,"CMA activity (Fig. 1d), individual experiments","[2]; 20 μM of each compound, single experiments",1.682 and 2.334 and 1.814
same,"CMA activity (Fig. 1e-g), mean","[2]; 12h, concentration 0.02 (unit not given)",12.0505
same,"CMA activity (Fig. 1e-g), mean","[2]; 12h, concentration 0.2",11.7342
same,"CMA activity (Fig. 1e-g), mean","[2]; 12h, concentration 2",11.803
same,"CMA activity (Fig. 1e-g), mean","[2]; 12h, concentration 5",19.8949
same,"CMA activity (Fig. 1e-g), mean","[2]; 12h, concentration 10",20.5334
same,"CMA activity (Fig. 1e-g), mean","[2]; 12h, concentration 20",21.2219
same,"CMA activity (Fig. 1e-g), mean","[2]; 12h, concentration 30",22.9989
same,"CMA activity (Fig. 1e-g), mean","[2]; 12h, concentration 40",22.6487
same,"CMA activity (Fig. 1e-g), mean","[2]; 12h, concentration 50",26.5841
same,"CMA activity (Fig. 1e-g), mean","[2]; 24h, concentration 0.02",9.918
same,"CMA activity (Fig. 1e-g), mean","[2]; 24h, concentration 0.2",11.4731
same,"CMA activity (Fig. 1e-g), mean","[2]; 24h, concentration 2",13.7252
same,"CMA activity (Fig. 1e-g), mean","[2]; 24h, concentration 5",18.3275
same,"CMA activity (Fig. 1e-g), mean","[2]; 24h, concentration 10",23.1811
same,"CMA activity (Fig. 1e-g), mean","[2]; 24h, concentration 20",24.726
same,"CMA activity (Fig. 1e-g), mean","[2]; 24h, concentration 30",25.9835
same,"CMA activity (Fig. 1e-g), mean","[2]; 24h, concentration 40",28.2999
same,"CMA activity (Fig. 1e-g), mean","[2]; 24h, concentration 50",27.6884
same,"CMA activity (Fig. 1h-j), mean, untreated (0) = 1","[2]; concentration 0.2, 12+12w (12 h, then 12 h after washing out)",0.9356
same,"CMA activity (Fig. 1h-j), mean, untreated (0) = 1","[2]; concentration 0.2, 12h",1.057
same,"CMA activity (Fig. 1h-j), mean, untreated (0) = 1","[2]; concentration 0.2, 24h",0.9789
same,"CMA activity (Fig. 1h-j), mean, untreated (0) = 1","[2]; concentration 2, 12+12w",0.9942
same,"CMA activity (Fig. 1h-j), mean, untreated (0) = 1","[2]; concentration 2, 12h",1.064
same,"CMA activity (Fig. 1h-j), mean, untreated (0) = 1","[2]; concentration 2, 24h",1.171
same,"CMA activity (Fig. 1h-j), mean, untreated (0) = 1","[2]; concentration 5, 12+12w",1.015
same,"CMA activity (Fig. 1h-j), mean, untreated (0) = 1","[2]; concentration 5, 12h",1.7927
same,"CMA activity (Fig. 1h-j), mean, untreated (0) = 1","[2]; concentration 5, 24h",1.564
same,"CMA activity (Fig. 1h-j), mean, untreated (0) = 1","[2]; concentration 10, 12+12w",0.9858
same,"CMA activity (Fig. 1h-j), mean, untreated (0) = 1","[2]; concentration 10, 12h",1.85
same,"CMA activity (Fig. 1h-j), mean, untreated (0) = 1","[2]; concentration 10, 24h",1.978
same,"CMA activity (Fig. 1h-j), mean, untreated (0) = 1","[2]; concentration 20, 12+12w",0.9968
same,"CMA activity (Fig. 1h-j), mean, untreated (0) = 1","[2]; concentration 20, 12h",1.912
same,"CMA activity (Fig. 1h-j), mean, untreated (0) = 1","[2]; concentration 20, 24h",2.11
same,"CMA activity (Fig. 1h-j), mean, untreated (0) = 1","[2]; concentration 30, 12+12w",1.224
same,"CMA activity (Fig. 1h-j), mean, untreated (0) = 1","[2]; concentration 30, 12h",2.072
same,"CMA activity (Fig. 1h-j), mean, untreated (0) = 1","[2]; concentration 30, 24h",2.217
same,duration of the increase in degradation of long-lived proteins,"NIH3T3; NIH3T3, 10 μM",sustained only for the first 12 h
same,"Lysosomal proteolysis, Mean (Fig. S3c)",NIH3T3; Time 6,3.18
same,"Lysosomal proteolysis, Mean (Fig. S3c)",NIH3T3; Time 12,5.83
